This passage reports Kd and membrane affinity results from patent publication US20080003590A1, “Termination of Binding Parameters” (priority 2004, published 2008).

The target in data set [1] is human serum albumin (HSA) (Homo sapiens, UniProt P02768). As to the kind of experiment: biochemical.
Procedure: 5. Immobilization of Human Serum Albumin (HSA) on Fluorescence-Active Supports (FI-HSA)
For the immobilization of HSA, 100 mg of HSA dissolved in 10 ml of phosphate buffer (20 mM, pH 7.4) are added to 1 g of a support prepared according to 2. and rotated overhead for at least four hours. To remove free protein, this is washed with phosphate buffer, 1M NaCl in phosphate buffer and finally with PBS. The quantification of the protein immobilization is effected by supernatant analysis. The suspension is adjusted to a desired protein concentration in PBS and stored.
For the determination of the albumin binding, 200 mg of the FI-HSA support prepared in 5. were made up to a total volume of 1 ml with PBS, and similarly 200 mg of an FI-Ref prepared according to 3. were made up to 1 ml with PBS.
For the determination of the concentration-dependent quantities, the following volumes were pipetted into the wells of a 384 well UV plate (Greiner UV-plate): […]
whereby the final concentration of carbamazepine in the wells is 70 μM. […] For the determination of the concentration-dependent quantity cpre-binding, excitation spectra of the wells reference 1 and substance 1 are recorded in the “top-read” mode between 250 and 480 nm with an emission wavelength of 530 nm, and calculated from cpre-binding=log F0v(λ)/Fv(λ), where F0v(λ) and Fv(λ) are the excitation spectra of the wells reference 1 and substance 1. […]
A short description of data set [2]: Determination of the membrane affinity of warfarin in the 96-well format (FI-EiPC support, internal filter effect). The format is physicochemical. The settings on record: triple determination, 70 μM warfarin, FI-EiPC support in PBS. As to the method:
4. Reconstitution of Lipid Membranes on Fluorescence-Active Supports (FI-EiPC)
For the reconstitution of lipid membranes, firstly 1 g of a support prepared according to 2. is treated with a solution of 25 mg of sodium polystyrenesulfonate in 25 ml of water in the overhead rotator and then washed three times each with water and PBS.
60 ml of a vesicle solution of 5 mg/ml EiPC (lipid extract from egg yolk) in PBS (prepared by homogenization in the Avestin Co EmulsiFlex-C5 homogenizer) are added to this support and incubated overnight. To remove excess lipid, this is washed three times with PBS and the support is then stored in PBS. The determination of the lipid concentration is effected by drying of defined volumes of suspension, detachment of the lipid from the solid body using an organic solvent, and then HPLC analysis.
Well reference 1: 100 μl FI-Ref suspension+200 μl PBS
Well substance 1: 100 μl FI-Ref suspension+170 μl PBS+30 μl warfarin solution;
Well reference 1′: 100 μl FI-EiPC suspension+200 μl PBS
Well substance 1′: 100 μl FI-EiPC suspension+170 μl PBS+30 μl warfarin solution; whereby the final concentration of warfarin in the wells is 70 μM. […]

Chain of human serum albumin (HSA) (P02768 25-609): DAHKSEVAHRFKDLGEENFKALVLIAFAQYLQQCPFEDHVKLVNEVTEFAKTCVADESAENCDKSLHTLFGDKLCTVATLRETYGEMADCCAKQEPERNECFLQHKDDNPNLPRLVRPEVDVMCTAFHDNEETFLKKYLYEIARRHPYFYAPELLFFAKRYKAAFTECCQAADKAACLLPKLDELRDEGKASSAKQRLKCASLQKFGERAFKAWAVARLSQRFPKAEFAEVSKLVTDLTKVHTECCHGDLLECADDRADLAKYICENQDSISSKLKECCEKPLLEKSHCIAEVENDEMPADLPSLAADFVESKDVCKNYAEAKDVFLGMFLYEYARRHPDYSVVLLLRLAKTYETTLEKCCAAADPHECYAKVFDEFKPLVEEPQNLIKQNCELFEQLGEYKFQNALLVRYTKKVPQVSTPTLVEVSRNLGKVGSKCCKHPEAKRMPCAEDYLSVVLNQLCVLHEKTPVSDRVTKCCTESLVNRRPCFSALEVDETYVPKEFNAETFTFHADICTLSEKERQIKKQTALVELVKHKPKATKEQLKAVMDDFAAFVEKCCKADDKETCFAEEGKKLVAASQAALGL

For orientation: Kd means the concentration at which binding is half-saturated. High values mean a looser complex, low ones a tighter complex. Regarding `NC(=O)N1c2ccccc2C=Cc2ccccc21` [carbamazepine], the Kd in data set [1] came out at 170 µM.
`CC(=O)CC(c1ccccc1)c1c(O)c2ccccc2oc1=O` (centres unmarked) [warfarin] registered a membrane affinity in data set [2] of 1.7±0.3.
